Patent EP4050002A1, “ANTI-PROLIFERATIVE AGENTS” (First Health Pharmaceuticals B.V., priority 2021, dated 2022)
Counter-ions that a name gives are not always drawn.

Assays:
DDX3X [1] = molecular target: T1, DDX3X (Homo sapiens, UniProt O00571); test: nanoDSF enzymatic binding (melting temperature shift); design: human DDX3X (residues 132-607, UniProtID: 000571, produced by Proteros GmbH); purchased Proteros GmbH; details: DDX3X with AMPPNP 100 µM, no compound
Description: The binding of compounds to DDX3X have been assessed by nanoDSF analysis (NanoTemper Technologies GmbH, Flößergasse 4, 81369 München, Germany). NanoDSF technology is a Differential Scanning Fluorimetry method which measures the protein stability with high resolution without the need of a dye. In particular it measures the changes of the intrinsic tryptophan fluorescence at 330 and 350 nm and it is used to determine the melting temperature of a protein. In the folded state the residues of tryptophan are buried in the hydrophobic core. During denaturation the residues are more exposed and the fluorescence changes in both intensity and wavelength. In a typical experiment, the protein is mixed with the ligand in the reaction buffer and transferred into a capillary. The fluorescence is monitored over temperature gradient between 20 and 95°C with an increment of 2.5°C per minute. The interaction of the ligand to the folded state of the protein shifts the protein melting temperature (Tm) at higher or lower temperature.
Experimental conditions: the experiments were conducted with the device Prometheus NT.48 (NanoTemper Technologies GmbH), the enzyme used was the human DDX3X (residues 132-607, UniProtID: 000571, produced by Proteros GmbH). The assessed compounds were dissolved in pure DMSO adequate to obtain a concentration of compound of 100µM and DMSO 1% (v:v) in final solution. Reaction buffer for DDX3X was 20 mM HEPES, pH 7.5, 0.5 mM TCEP, 500 mM NaCl, 10% (v:v) Glycerin, with a final reaction volume of 10 µL and a final DMSO concentration of 1% (v:v). The reaction was performed in "High sensitivity capillaries" in the range of 20-95°C with a heating rate of 2.5°C/min, with an incubation time of 60 minutes.
• 1) Add appropriate volume of target enzyme in reaction buffer • 2) Add compound(s) in 100% DMSO (1% final DMSO conc.) • 3) Fill the capillary • 4) Measure fluorescence
The assay development was performed with DDX3X protein alone showing a Tm at 54.6 °C.
Binding of compound 5 was assessed with the NanoDSF technique, evaluating the association of the aforementioned compound with APO DDX3X and in presence of a competitor for the ATP binding site, Adenylyl imidodiphosphate (AMPPNP) to assess competition of compound 5 for the DDX3X ATP binding site. Table 6. Final protein and compound concentrations in the various assay setup:
All the measures were performed in triplicate and the average (Mean Tm) and standard deviation (SD) were calculated with the following equations: [formula] and SD = sqrt((∑((Tm−Mean Tm))^2)/(n−1)) [formula]
A change of 5xSD from the 1% DMSO control mean is considered to be a significant Tm change. Test of DDX3X with 1% DMSO was performed to obtain the reference melting temperature of the protein alone. Compounds are considered as binders if the Tm shifts by >= 5 times the standard deviation of the control (protein in the absence of compound). Table 7. DDX3X melting temperatures (Tm) at various experimental conditions
Target sequence in this assay (O00571 132-607): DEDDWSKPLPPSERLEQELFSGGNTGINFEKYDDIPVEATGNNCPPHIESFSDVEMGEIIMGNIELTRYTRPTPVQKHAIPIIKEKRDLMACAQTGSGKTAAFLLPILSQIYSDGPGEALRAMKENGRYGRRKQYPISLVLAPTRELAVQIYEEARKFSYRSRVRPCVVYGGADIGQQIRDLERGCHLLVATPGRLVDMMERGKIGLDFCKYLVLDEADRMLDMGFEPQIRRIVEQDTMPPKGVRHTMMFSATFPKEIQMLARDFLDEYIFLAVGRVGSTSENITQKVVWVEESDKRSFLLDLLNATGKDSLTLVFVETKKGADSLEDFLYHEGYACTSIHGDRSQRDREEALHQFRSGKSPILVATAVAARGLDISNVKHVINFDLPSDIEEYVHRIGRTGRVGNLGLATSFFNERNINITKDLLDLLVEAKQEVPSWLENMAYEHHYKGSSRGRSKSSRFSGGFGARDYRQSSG

A549 Red-FLuc = test: Cytotoxicity, cell count method; format: cell-based; details: Homo sapiens, 72 hours of incubation
Description: The anti-tumor activity of the compounds of the present invention was evaluated as the effect on the proliferation and survival of tumor cells by counting the number of living cells in presence or absence of the compounds ("cell count method"), and as the effect on the viability and metabolic activity of the cells, by using particular substrates that are converted by cellular enzymes into coloured or luminescent products, proportionally with metabolic activity and state of the cell, such as the MTS tetrazolium compound ("MTS method") or luciferin ("ATP-based method") respectively.
Cells were seeded at 3 to 5 x 10^4 cells/well density depending on cell lines and maintained at 37°C in 5% CO2. After 24 hours cells were treated with ascending concentrations of the investigational compounds and the reference (5-fluoro-Uracyl) in a range from 0 to 100 µM. Compounds were dissolved in DMSO which final concentration in each well was 0.5% v:v. After 72 h of incubation with compounds, the cells were detached with trypsin and re-suspended in 1 ml of complete medium; the cell number was evaluated using a Z2 Coulter Counter ("cell count method") (Attallah and Johnson, A simple highly sensitive methods for the determination of cell viability using an electronic particle analyzer, Coulter counter J. Immunol. Methods. 1981, 41, 155; Leonardi et al., Activated kinase screening identifies the IKBKE oncogene as a positive regulator of autophagy. Autophagy, 2019, 15, 312). Alternatively, after the 72 hours of incubation with compounds, the MTS solution (CellTiter 96® AQueous One Solution Cell Proliferation Assay) is added to each well and absorbance at 490 nm wavelength is read after 2 hours of incubation ("MTS method"). Results in Tables 8-13, 17, 18 were obtained with the cell count method. Results in Tables 14-15 were obtained with the MTS method. Results in Table 16 were obtained with ATP-based method.

DDX3X [2] = molecular target: T1, DDX3X; test: Helicase assay (unwinding of 18/36mer dsRNA); format: biochemical; design: host or cells: 293T cells (transient transfection, anti-HA immunoprecipitation, protein kept on beads); details: 50, 250 and 500 µM, in presence of ATP
Description: The DDX3X protein was obtained by immunoprecipitation from 293T cells (3x10^5) were seeded in 6-well plates and, after 24h, transfected with 1 µg of HA-DDX3 (Addgene plasmid # 44975) by using the Lipofectamine reagent (Thermo Fischer Scientific). After 36 h, cells were lysed in NP-40 Lysis Buffer (20 mM HEPES pH=7.5, 10 mM EGTA pH=8, 40 mM β-glycerolphosphate, 1% NP40, 2.5 mM MgCl2, 2 mM Orthovanadate, 2 mM NaF, 1 mM DTT, and 1X protease inhibitors mixture) and 2 mg of proteins were immunoprecipitated with anti-HA antibodies (Covance) in NP40 lysis buffer. Immunoprecipitated samples were washed twice with lysis buffer and one time in helicase reaction buffer (50 mM Tris HCl pH=8, 1 mM DTT, 5% glycerol, 10 mM MgCl2). Beads were then resuspended in 100 µl in helicase reaction buffer. […]
Ultimately, reactions were performed in a final volume 100 µl of helicase reaction buffer plus ATP 4 mM, 30 µl of beads used to immunoprecipitate HA-DDX3X, 20 nM of 18/36mer dsRNA and 100 nM of competitor at 37°C for 1 hour and stopped by adding 10 µl of a stopping solution (EDTA 60 mM pH=8, 40% glycerol, 0.6% SDS, 1% Orange G). […] Quantification of the ssRNA was performed by the ImageJ software (version 1.53, NIH). […]
Target sequence in this assay (O00571 whole entry, the tested form may be a part): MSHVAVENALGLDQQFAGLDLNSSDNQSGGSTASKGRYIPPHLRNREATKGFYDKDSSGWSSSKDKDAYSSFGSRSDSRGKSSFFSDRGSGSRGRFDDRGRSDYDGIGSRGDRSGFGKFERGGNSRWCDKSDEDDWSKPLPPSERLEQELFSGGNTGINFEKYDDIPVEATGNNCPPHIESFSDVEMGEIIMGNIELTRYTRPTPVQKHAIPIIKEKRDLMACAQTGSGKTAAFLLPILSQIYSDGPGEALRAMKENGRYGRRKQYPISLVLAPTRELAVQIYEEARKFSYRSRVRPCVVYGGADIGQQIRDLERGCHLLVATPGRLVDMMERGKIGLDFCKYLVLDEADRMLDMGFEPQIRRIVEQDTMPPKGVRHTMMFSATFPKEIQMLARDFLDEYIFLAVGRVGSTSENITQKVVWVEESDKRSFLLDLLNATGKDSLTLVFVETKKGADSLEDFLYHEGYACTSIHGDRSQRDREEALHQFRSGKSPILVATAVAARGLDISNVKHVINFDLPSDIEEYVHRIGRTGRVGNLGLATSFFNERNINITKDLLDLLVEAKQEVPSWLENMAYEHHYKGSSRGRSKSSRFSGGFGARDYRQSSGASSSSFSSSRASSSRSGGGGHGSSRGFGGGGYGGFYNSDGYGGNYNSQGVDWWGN

With `Nc1ncnc2c1ncn2[C@@H]1O[C@H](COP(=O)(O)OP(=O)(O)NP(=O)(O)O)[C@@H](O)[C@H]1O` [AMPPNP, Adenylyl imidodiphosphate, reference compound] the Tm (DDX3X [1]) was 54.7 °C and the “effect on Tm upon binding” value (DDX3X [1]) was “no significant effect on Tm”.
With `CCCCc1cn(-c2ccc(-c3nnc(-c4cccc(C(=O)O)c4)o3)cc2)nn1` [Compound 16, 3-(5-(4-(4-butyl-1H-1,2,3-triazol-1-yl)phenyl)-1,3,4-oxadiazol-2-yl)benzoic acid] the IC50 (A549 Red-FLuc) was 18.1 µM and the “inhibitory effect on DDX3X helicase activity” value (DDX3X [2]) was “inhibitory effect on DDX3X helicase activity”.
`CCCCc1cn(-c2ccc(-c3nnc(-c4ccc(C5CCNCC5)cc4)o3)cc2)nn1` [Compound 19, 2-(4-(4-butyl-1H-1,2,3-triazol-1-yl)phenyl)-5-(4-(piperidin-4-yl)phenyl)-1,3,4-oxadiazole hydrochloride] showed an IC50 (A549 Red-FLuc) of 1.7 µM.
`CCCCc1cn(-c2ccc(-c3nnc(-c4cccc(OC5CCCC5)c4)o3)cc2)nn1` [Compound 22, 2-(4-(4-butyl-1H-1,2,3-triazol-1-yl)phenyl)-5-(3-(cyclopentyloxy)phenyl)-1,3,4-oxadiazole] showed an IC50 (A549 Red-FLuc) of 3.42 µM.
